Laboratory results reported in patent US10463709B2, “Short synthetic peptide for treating diseases and/or conditions related to angiogenesis” (MacKay Memorial Hospital, priority 2015, dated 2019).
“Also recorded” adds a separate entry of the source. Square brackets hold non-standard residues; d marks the D form. Ends that are not written are not given here.

Tests used:
RPMI8226 cells = experiment: MTT assay, VEGF-induced proliferation of RPMI8226 cells; assay type: cell-based; conditions: for dose dependence of inhibitory action on VEGF-induced cell proliferation: 1 to 25 μM, RPMI8226 cells
Experimental: The multiple myeloma line RPMI8226 was cultivated in complex medium (RPMI1640) supplemented with 10% (vol/vol) heat-inactivated fetal calf serum (Invitrogen), 50 μg/mL penicillin, 50 μg/mL streptomycin, and 2 mM L-glutamine at 37° C. in a 5% CO2 atmosphere. RPMI8226 cells were cultured in serum-free RPMI1640 medium for 24 hrs, and then cells were seeded in 48-well culture plates (3×10^5 cells/well) and continued to culture in 0.5 ml fresh serum-free RPMI1640 medium containing 25 μM peptide for another 24 hrs. The cell viability was determined by the MTT assay. Briefly, 50 μL of MTT stock solution (50 μL) (5 mg MTT dissolved in 1 ml of sterile PBS) was added to each culture well. In addition, 50 μL of the MTT stock solution was added in 500 μL of medium as the negative control. The culture plate was incubated at 37° C. for 4 hours. Aliquots (450 μl) from each sample were taken to a new well of 48-well culture plate, adding 100 μL DMSO, mixing thoroughly using the pipette and reacted at 37° C. for 20 min and read absorbance at 570 nm. These synthesized peptides were then subject to MTT assay, in which vascular endothelial growth factor (VEGF) was used as a stimulant to induce cell proliferation. Results are depicted in FIGS. 1 to 4.

HUVECs [1] = experiment: Apoptosis assay (annexin V-FITC); assay type: cell-based; conditions: HUVECs
Experimental: The percentage of apoptotic HUVEC cells was assayed using TACS annexin V-FITC kit. The percentage of annexin V-positive cells was determined using in situ staining according to the manufacturer's instruction. The cell number was determined by counterstaining with Hoechst 33342. The nuclei in ten randomly selected fields of the three different chambers (˜7200 cells) were counted. Specimens were examined and photographed on a Zeiss epifluorescence microscope (×100, 10 fields/sample). Pictures were recorded on Zeiss software.

[2] = test system: human uterine sarcoma cells (MES-SA/Dx5); experiment: Tumorigenicity assay, xenografted human uterine sarcoma; assay type: in vivo, nude mice; conditions: 10 mg/kg intraperitoneal every 2 days
Experimental: MES-SA/Dx5 cells (5×10^6 cells in 0.1 ml) were implanted by subcutaneous injections in the right flank region of female nude mice (n=24, each animal weighted about 20 g before the assay began). The experiments were approved by the Mackay Memorial Hospital Review Board for animal investigation. Treatment was initiated in animals when the tumor volume was above 80 mm^3. Vehicle DMSO, the present synthetic peptide or the control peptide (10 mg/kg) was administered by intraperitoneal injections every 2 days. Tumor progression was monitored for 10 days; size of the tumor was measured every 3 to 5 days with a caliper and the volume was calculated using the following formula: ½×length×width^2.
To this purpose, human uterine sarcoma cells (MES-SA/Dx5) were implanted in nude mice to induce tumor formation, and when the volume of each tumor reached 80 mm^3, animals were then treated with vehicle alone, or the 7-mer peptide at the dose of 10 mg/kg, every 2 days for 10 days. Results are depicted in FIG. 9.

[3] = test system: STZ-induced diabetic mice; experiment: Vascular abnormalities in the retina of diabetic mice; assay type: in vivo; conditions: for Fluorescence Intensity (Fold): leaked FITC-BSA in entire retina, vs vehicle
Experimental: Diabetic mice were generated by a single intraperitoneal injection of streptozotocin (STZ) (150 mg/kg body weight). STZ was freshly prepared in 0.1 M citrate buffer (pH 4.5). After injection, mice were supplied with 10% sucrose overnight to prevent sudden hypoglycemic shock. After 1 week, mice with non-fasting blood glucose levels >500 mg/dl were defined as diabetic and used for the experiments. DMSO Vehicle or the present synthetic peptide (10 mg/kg; n≥3 per peptide) were administered by intraperitoneal injections twice a day. After treatment for 24 h, mice were intraperitoneal injected with 100 mg/kg of BSA-FITC for further 30 min.
To determine vascular lesions (hemorrhaging areas) in retina, the animals were euthanized by CO2 inhalation, and the eyes were enucleated and fixed by 2% paraformaldehyde for 2 hr and flat-mounted onto glass slides to obtain optical sections by an epifluorescence microscopy. Vascular lesions in the retina was scored in all four retinal quadrants of flat mounts by using a 20× objective. Six microscopic fields were sampled in each quadrant in both the central and peripheral retina, and data were presented as the average number of lesions/retina.
Vascular FITC-BSA leakage was determined by a fluorescence spectrofluorometer based on standard curves of FITC-BSA at excitation and emission wavelengths of 488 and 535 nm, respectively, and then normalized to a non-injected control retina. For this analysis, retinas were dissected from treated and untreated diabetic mice after BSA-FITC injections, and each was solubilized in 300 μL ice-cold PBS.
Diabetic retinopathy is characterized by blood-retinal barrier (BRB) breakdown and neurotoxicity. To evaluate the possible beneficial effect of the present synthetic peptides on diabetic retinopathy, STZ-induced diabetic mice were intraperitoneally injected with 7-mer peptide, DMSO vehicle or the control peptide (SEQ ID NO: 22). The retinal vascular abnormality was then monitored by detecting the extravasation of BSA-fluorescein. Results are depicted in FIG. 11.

HUVECs [4] = experiment: VEGF-induced HUVEC proliferation assay; assay type: cell-based; conditions: VEGF (10 ng/mL) + 25 μM peptide; vs untreated HUVECs
Experimental: HUVECs (1×10^5 cells per well of 6-well plate) were grown in Medium 200 with Low Serum Growth Supplement (LSGS Kit, supplement contains 1.9% FBS, 3 ng/ml bFGF, 10 μg/ml heparin, 1 μg/ml hydrocortisone, and 10 ng/ml EGF). Culture plates were coated with 2% gelatin. Cells (passages 4-8) were cultured at 37° C. in a humidified atmosphere of 5% CO2. […]
HUVECs (1×10^5 cells per well of 6-well plate) in Medium 200 supplemented with LSGS Kit were allowed to grow onto 6-well plates coated with 2% gelatin for 24 hours at 37° C. in 5% CO2. The culture medium was then replaced with serum free Medium 200 overnight. […] Then, cells were harvested by trypsin-EDTA and counted using a hemocytometer.

HUVECs [5] = experiment: Endothelial cell capillary-like tube formation assay; assay type: cell-based; conditions: VEGF (10 ng/mL) + 25 μM peptide; vs untreated HUVECs
Experimental: To examine the effect of the present synthetic peptide on in vitro angiogenesis, growth factor-reduced matrigel was pipetted into pre-chilled 24-well plates (150 μl matrigel per well) and polymerized for 45 min at 37° C. […] In this experiment, images were captured using a Cannon camera on Zeiss inverted microscope with magnification ×40 and tube length was quantified using Image analysis software (Image-Pro Plus). The control peptide as used in the present invention has the sequence of DLYRVR (SEQ ID NO: 10).

rat aortic ring = experiment: Rat aortic ring assay (ex vivo microvessel sprouting); design: species or system Sprague Dawley rats; conditions: beta-FGF induced; peptide 50 μM
Experimental: Thoracic aortas were removed from euthanized 10-week-old male Sprague Dawley rats, and gently stripped off periaortic fibroadipose tissue. Aortas were sectioned to about 2-mm length rings, which were embedded in Matrigel. To induce angiogenesis, human recombinant bFGF (50 ng/ml) or bFGF plus the peptide (50 μM) was added in Matrigel. Gel (200 μl) containing an aortic ring was polymerized in 12-well plates (37° C. for 30 min) and then incubated with 1 ml of Medium 200 supplemented with 100 units/ml penicillin, and […] streptomycin and 2% FBS at 37 ° C. The cultures were propagated at 37 ° C. in a humidified incubator for up to 7 days. Sprouts were recorded using an inverted microscope platform (Leica DM16000B) with bright-field optics. Each ring was scored by three independent observers on a scale 0-4 depending on the degree of sprouting vessel being observed (0=no sprouting, 4=profuse sprouting). The experiment was repeated in triplicates.

B16-F10 melanoma cells = experiment: Experimental pulmonary metastasis in mice; assay type: in vivo, C57BL/6 mice; conditions: for effect on number of colonies on the surface of the lung / in vivo metastasis / No. lung colonies: 10 mg/Kg intraperitoneal every 2 days; for No. lung colonies: day 8, n = 5; for Inhibition (%): lung colonies vs vehicle, 10 mg/Kg
Experimental: 2×10^5 B16-F10 cells were suspended in 100 μl PBS and checked for viability using trypan blue staining (>95%). The B16-F10 cells were then injected into the tail vein of the 6-week-old female C57BL/6 mice; while vehicle (DMSO), the present synthetic peptide or the control peptide (10 mg/kg) were administered by intraperitoneal injections every 2 days after the B16-F10 cell injection. Five mice were used for each group. On day 8 after inoculation of cells, the lungs were removed, and the number of visible colonies on the surface of the lungs were counted using a dissecting microscope.
Metastasis is the foremost cause of death from cancer. In this example, to investigate the efficacy of the present synthetic peptide on the metastasis of cancer cells, B16-F10 cells were injected into the tail vein of a mouse, the animal was then treated with the present synthetic peptide (7-mer or 7-mer DD, 10 mg/Kg) by intraperitoneal injections every 2 days. Upon completion of the experiment, the lungs were then removed and the tumor colonies visible to the eyes were then counted. Results are depicted in FIG. 10.

[6] = test system: rat model of laser-induced wet AMD; experiment: Laser-induced wet AMD, rat model; assay type: in vivo; conditions: fluorescein angiography day 14; vs PBS vehicle
Source text: Further, the effect of 7-mer or 7-mer DD on rat model of laser-induced wet AMD was also investigated. Fluorescein angiography images were obtained on day 14 after laser burn, and the images were subsequently scored. Results are depicted in FIG. 14.

Substance	biological activity of the analogue relative to the 7-mer (summary statement of the description) (RPMI8226 cells; summary of Example 1 findings)	induction of cell apoptosis (HUVECs [1])	sizes of tumors [2]	hemorrhage in the retinal parenchyma ([3]; intraperitoneal)	dose dependence of inhibitory action on VEGF-induced cell proliferation (RPMI8226 cells)	Cell number (Fold) (HUVECs [4])	Tube length (Fold) (HUVECs [5])	level of sprouting microvessels around the aortic ring (rat aortic ring)	effect on number of colonies on the surface of the lung / in vivo metastasis (B16-F10 melanoma cells)	No. lung colonies (B16-F10 melanoma cells)	Inhibition (%) (B16-F10 melanoma cells)	extravasation of FITC-BSA [3]	Fluorescence Intensity (Fold) [3]	lesions caused by the laser burn [6]
NH2-Asp-Leu-Tyr-Arg-Val-Arg-COOH (DLYRVR; not fully specified (N-terminus, C-terminus); printed as NH2-Asp-Leu-Tyr-Arg-Val-Arg-COOH) [Control Peptide, reference compound]	does not possess any biological function	did not result in cell apoptosis	remained relatively unchanged	several hemorrhaging areas	–	–	–	–	–	–	–	–	–	–
NH2-(D-Asp)-Leu-Tyr-Arg-Val-Arg-Ser-COOH (H-[dD]LYRVRS-OH) [7-mer DD]	–	–	–	–	dose dependent manner	0.90 ± 0.048 Fold	1.33 ± 0.25 Fold	inhibited	capable of reducing the number of colonies; also recorded: may suppress in vivo metastasis	40 ± 15.7	82.3%	may significantly prevent	0.38 ± 0.11 Fold	significantly ameliorated
H-DLYR[dV]RS-OH [7-mer DV]	–	–	–	–	dose dependent manner	0.99 ± 0.078 Fold	1.24 ± 0.18 Fold	inhibited	may suppress in vivo metastasis	51 ± 17.0	77.4%	may significantly prevent	0.31 ± 0.072 Fold	–
